{"source": "patent US12510533B2", "about": "“Methods for treating multiple myeloma and the use of companion biomarkers for 4-(4-(4-(((2-(2,6-dioxopiperidin-3-yl)-1-oxoisoindolin-4-yl)oxy)methyl)benzyl)piperazin-1-yl)-3-fluorobenzonitrile” (Celgene Corporation, priority 2018, dated 2025)", "key": {"[1]": {"system": "tumor necrosis factor alpha (TNF-α)", "experiment": "TNF-α production by TCR-activated healthy PBMCs", "format": "cell-based, human", "details": "24 hours", "description": "FIG. 21A-FIG. 21C illustrate that Compound 2 is a potent inducer of effector cytokines. […] (FIG. 21A) IL-2, (FIG. 21B) IFN-γ, and (FIG. 21C) TNF-α. Data shown are an average from three or four donors and are represented as fold change over DMSO control; error bars represent standard error of the mean (SEM).\nThe immunomodulatory activity of Compound 2 on T cell receptor (TCR)-activated healthy PBMCs was assessed. […] This increased in cytokine secretion was evident as early as 24 hours after introduction of Compound 2 with the peak of the effector cytokine production induced by Compound 2 being 5.5-fold for IL-2, 4.5-fold for interferon gamma (IFN-γ), and 2-fold for tumor necrosis factor alpha (TNF-α) above the vehicle control (FIG. 21A-FIG. 21C, respectively)."}, "Ikaros": {"target": "Ikaros (Homo sapiens, UniProt Q13422+Q96SW2)", "sequence (Q13422 whole entry)": "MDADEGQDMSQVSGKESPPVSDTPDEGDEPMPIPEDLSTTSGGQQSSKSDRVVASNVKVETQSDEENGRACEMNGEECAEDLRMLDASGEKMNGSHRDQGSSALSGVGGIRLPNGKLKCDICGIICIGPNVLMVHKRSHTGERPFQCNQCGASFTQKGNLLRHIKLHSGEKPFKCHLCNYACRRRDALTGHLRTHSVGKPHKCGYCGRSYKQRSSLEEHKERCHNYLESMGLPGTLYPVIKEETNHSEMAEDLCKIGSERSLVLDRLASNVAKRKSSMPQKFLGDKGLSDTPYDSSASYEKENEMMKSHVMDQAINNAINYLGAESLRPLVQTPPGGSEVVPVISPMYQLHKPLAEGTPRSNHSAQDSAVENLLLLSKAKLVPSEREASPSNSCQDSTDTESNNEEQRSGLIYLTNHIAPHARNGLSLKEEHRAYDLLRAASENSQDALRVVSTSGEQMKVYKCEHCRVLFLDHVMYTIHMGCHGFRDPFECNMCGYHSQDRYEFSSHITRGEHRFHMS", "sequence (Q16531 2-1140, further chain)": "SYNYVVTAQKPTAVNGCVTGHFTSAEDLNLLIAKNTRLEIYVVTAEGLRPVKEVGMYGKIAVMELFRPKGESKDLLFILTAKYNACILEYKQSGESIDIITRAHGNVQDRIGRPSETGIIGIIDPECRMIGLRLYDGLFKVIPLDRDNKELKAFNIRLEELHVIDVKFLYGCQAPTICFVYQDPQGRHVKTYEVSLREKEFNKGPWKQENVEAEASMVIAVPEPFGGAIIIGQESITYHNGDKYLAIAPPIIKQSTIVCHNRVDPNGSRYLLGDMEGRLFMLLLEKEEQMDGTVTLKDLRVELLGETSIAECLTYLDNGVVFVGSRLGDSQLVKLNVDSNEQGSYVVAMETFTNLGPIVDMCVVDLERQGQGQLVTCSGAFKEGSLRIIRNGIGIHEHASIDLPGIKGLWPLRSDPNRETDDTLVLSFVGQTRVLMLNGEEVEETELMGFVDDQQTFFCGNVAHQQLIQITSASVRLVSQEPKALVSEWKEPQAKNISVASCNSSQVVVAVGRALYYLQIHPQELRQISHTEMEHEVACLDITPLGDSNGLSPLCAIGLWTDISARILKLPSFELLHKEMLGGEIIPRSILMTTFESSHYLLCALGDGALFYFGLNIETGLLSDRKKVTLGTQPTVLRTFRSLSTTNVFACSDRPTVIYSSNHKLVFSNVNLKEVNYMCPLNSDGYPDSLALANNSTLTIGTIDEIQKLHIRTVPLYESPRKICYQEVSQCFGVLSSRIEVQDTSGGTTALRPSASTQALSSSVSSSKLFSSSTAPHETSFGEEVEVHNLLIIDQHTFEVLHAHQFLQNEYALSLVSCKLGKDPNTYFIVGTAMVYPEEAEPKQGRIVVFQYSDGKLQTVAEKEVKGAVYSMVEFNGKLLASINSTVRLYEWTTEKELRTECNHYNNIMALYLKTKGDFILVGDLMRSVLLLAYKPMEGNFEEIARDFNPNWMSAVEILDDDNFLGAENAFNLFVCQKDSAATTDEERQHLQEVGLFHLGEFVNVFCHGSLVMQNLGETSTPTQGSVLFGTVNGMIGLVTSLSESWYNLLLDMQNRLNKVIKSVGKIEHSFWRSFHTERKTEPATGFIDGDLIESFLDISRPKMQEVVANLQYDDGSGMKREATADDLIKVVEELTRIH", "sequence (Q96SW2 whole entry)": "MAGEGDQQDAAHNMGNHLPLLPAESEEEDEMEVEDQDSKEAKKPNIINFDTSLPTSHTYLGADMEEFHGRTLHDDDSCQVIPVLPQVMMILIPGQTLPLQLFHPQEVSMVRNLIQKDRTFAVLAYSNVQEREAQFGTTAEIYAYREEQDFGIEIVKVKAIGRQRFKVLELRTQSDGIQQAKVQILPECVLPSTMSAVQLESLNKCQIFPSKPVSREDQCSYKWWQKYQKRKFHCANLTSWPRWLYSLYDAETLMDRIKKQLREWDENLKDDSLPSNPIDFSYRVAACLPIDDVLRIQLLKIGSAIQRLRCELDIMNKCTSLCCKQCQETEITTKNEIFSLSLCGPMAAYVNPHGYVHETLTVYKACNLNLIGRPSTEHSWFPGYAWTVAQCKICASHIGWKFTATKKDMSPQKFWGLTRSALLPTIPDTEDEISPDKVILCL", "experiment": "Ikaros level by flow cytometry in ex vivo cultures of healthy donor bone marrow CD34+ cells (neutrophil maturation)", "format": "cell-based", "set-up": "The effects of Compound 2 on the degradation of Ikaros in CD4+ and CD8+ T cells; endogenous in cells; host or cells: CD4+ and CD8+ T cells of healthy donors; CD34+ bone marrow cells of healthy donors; CD3+ T cells of multiple myeloma patients", "description": "Ex vivo cultures of bone marrow (BM) CD34^+ cells from healthy donors (HD) were used to investigate the effect of Compound 2 on neutropenia. […] Therefore, we monitored the effects of Compound 2 on mature neutrophils.\nIkaros protein level was analyzed by flow cytometry after each exposure period, and also at Days 19, 21, and 23 corresponding to 3, 5, and 7 days following the last exposure, respectively. CD34^+ cells derived from healthy donor bone marrow were exposed to different concentrations of Compound 2 and different incubation schedules. The percentage of Ikaros content (normalized to the DMSO control) following Compound 2 exposure at concentrations of 1, 10, and 100 nM for 2, 4, and 6 hours on each of 1, 2, or 3 consecutive days starting on Day 14 were measured. At the end of the exposure period, Compound 2 was removed and cells were incubated in the absence of Compound 2 (recovery period). Ikaros was measured by flow cytometry after incubation with Compound 2 (Days 14 to 16) and during recovery on Days 19, 21, and 23. Ikaros levels were reduced during Compound 2 exposure and recovered following drug withdrawal in a concentration-dependent manner with no significant differences noted in association with different exposure schedules (FIG. 13). Ikaros levels began returning to normal after at least 3 days following washout, pre-dating full recovery of maturation of late-stage neutrophil precursors.\nTo further explore the role of Ikaros in relationship to the maturation of neutrophil progenitors, Ikaros protein levels were analyzed by flow cytometry after each exposure and every other day following the last exposure to Compound 2. […] After 3 days of exposure to Compound 2, the recovery of Ikaros began in a concentration-dependent manner just 24 hours after drug washout and returned to control levels after 10 days (FIG. 14; FIG. 16B). With 5 days of exposure to Compound 2, recovery of Ikaros started on Day 17, three days after drug washout (FIG. 15). […]"}}, "data": [{"compound": "N#Cc1ccc(N2CCN(Cc3ccc(COc4cccc5c4CN([C@H]4CCC(=O)NC4=O)C5=O)cc3)CC2)c(F)c1", "note": "[Compound 2, (S)-4-(4-(4-(((2-(2,6-dioxopiperidin-3-yl)-1-oxoisoindolin-4-yl)oxy)methyl)benzyl)piperazin-1-yl)-3-fluorobenzonitrile]", "values": [{"measurement": "peak TNF-α production above the vehicle control", "setting": "[1]", "result": 2, "unit": "fold"}, {"measurement": "time following washout at which Ikaros levels began returning to normal", "setting": "Ikaros; 2, 4, 6 hour exposures on 1 to 3 consecutive days from Day 14", "result": "at least 3 days"}, {"measurement": "time for Ikaros to return to control levels", "setting": "Ikaros; 3 days of 6-hour exposures", "result": 10, "unit": "days"}, {"measurement": "Ikaros degradation after one exposure", "setting": "Ikaros; all concentrations (1, 10, 100 nM) and all exposure schedules", "result": "fully degraded"}]}]}
